Reference: ChEMBL document CHEMBL6103673, “Novel 1,6-Naphthridine Compounds as SMARCA2 Inhibitors for Treating Non-small Cell Lung Cancer” (ACS Med Chem Lett, 2025)
pIC50: −log10 of the molar value.

Experiment: Inhibition of SMARCA2/SMARCC1/SMARCC2/SMARCB1 (unknown origin) using ATP/nucleosome mix as substrate preincubated for 30 mins followed by substrate addition and measured after 180 mins by ADP-Glo assay
Set-up: species or system Homo sapiens

SMILES	pIC50
C[C@@H]1CN(c2cccc(-c3ccc4cnc(CC(=O)N[C@@H]5CCN(S(=O)(=O)C(F)F)C5)cc4c3)n2)C[C@H](C)O1	9.28
C[C@@H]1CN(c2cccc(-c3ccc4cnc(CC(=O)N[C@@H]5C[C@@H](F)CN(S(=O)(=O)C(F)F)C5)cc4n3)n2)C[C@H](C)O1	9.30
C[C@@H]1CN(c2cccc(-c3ccc4cnc(CC(=O)Nc5cccc(S(=O)(=O)C(F)F)c5)cc4n3)n2)C[C@H](C)O1	9.35
Cc1ccc(NC(=O)Cc2cc3cc(-c4cccc(N5C[C@@H](C)O[C@@H](C)C5)n4)ccc3cn2)cc1S(C)(=O)=O	9.32

Now those with a higher pIC50, led by results:

pIC50	SMILES
9.37	C[C@@H]1CN(c2cccc(-c3ccc4cnc(CC(=O)N[C@@H]5CN(S(=O)(=O)C(F)F)CC(F)(F)C5)cc4n3)n2)C[C@H](C)O1
9.48	C[C@@H]1CN(c2cccc(-c3ccc4cnc(CC(=O)N[C@@H]5C[C@H](C)N(S(=O)(=O)C(F)F)C5)cc4c3)n2)C[C@H](C)O1
